Tests used:
[1] = Antiinflammatory activity in human neutrophils assessed as inhibition of formyl-L-methionyl-L-leucyl-L-phenylalanine/cytochalasin B-induced elastase release; assay type: functional, cell-based; details: Neutrophil
[2] = Antiinflammatory activity in human neutrophils assessed as inhibition of formyl-L-methionyl-L-leucyl-L-phenylalanine/cytochalasin B-induced superoxide anion generation; assay type: functional, cell-based; details: Neutrophil

Row | SMILES | IC50 [1] | IC50 [2]
1 | COc1cc([C@@H]2Oc3cc(/C=C/C=O)ccc3O[C@H]2CO)cc(OC)c1O | > 50 µM | 26.9 µM
2 | COc1cc([C@@H]2Oc3cc(/C=C/C=O)cc(O)c3O[C@H]2CO)cc(OC)c1OC | > 50 µM | > 50 µM
3 | COc1cc(/C=C\C(=O)OC[C@H]2[C@@H](Cc3cc(OC)c(O)c(OC)c3)CO[C@@H]2c2cc(OC)c(O)c(OC)c2)ccc1O | 28.9 µM | 28 µM
4 | COc1cc([C@@H]2Oc3cc(/C=C/C=O)cc(OC)c3O[C@H]2CO)ccc1O | > 50 µM | > 50 µM
5 | COc1cc([C@@H]2Oc3cc(/C=C/C=O)cc(OC)c3O[C@H]2CO)cc(OC)c1O | > 50 µM | 48.6 µM
6 | COc1cc(=O)n(C)c2ccccc12 | > 50 µM | > 50 µM
7 | COc1cc([C@@H]2OC[C@@H]3[C@H]2CO[C@H]3c2cc(OC)c(O)c(OC)c2)cc(OC)c1O | > 50 µM | 39.9 µM
8 | COc1cc([C@@H]2Oc3c(c(OC)cc4ccc(=O)oc34)O[C@H]2CO)cc(OC)c1OC | > 50 µM | 14.7 µM
9 | COc1cc(/C=C/C(=O)OC[C@H]2[C@@H](Cc3cc(OC)c(O)c(OC)c3)CO[C@@H]2c2cc(OC)c(O)c(OC)c2)ccc1O | > 50 µM | 33.6 µM
10 | CC1(C)C=Cc2cc(/C=C/C=O)ccc2O1 | > 50 µM | > 50 µM
11 | COc1c2c(c3ccc(=O)oc3c1/C=C/C(C)(C)OC)OC(C)(C)C=C2 [AVICENNOL METHYL ETHER] | > 50 µM | 48.4 µM
12 | COc1c2c(c3ccc(=O)oc3c1/C=C/C(C)(C)O)OC(C)(C)C=C2 [AVICENNOL] | 32 µM | > 50 µM
13 | COc1cc([C@@H]2Oc3c(c(OC)cc4ccc(=O)oc34)O[C@H]2CO)cc(OC)c1O [CLEOMISCOSIN D] | > 50 µM | 13.1 µM
14 | COc1c2ccccc2nc2occc12 [DICTAMNINE] | > 50 µM | > 50 µM
15 | c1ccc2c(c1)[I+]c1ccccc1-2 [DIPHENYLENEIODONIUM] | – | 1.68 µM
16 | COc1cc(=O)[nH]c2c(OC)cccc12 [EDULITINE] | > 50 µM | 38 µM
17 | COc1cc2ccc(=O)oc2c(OC)c1OC [FRAXIDIN METHYL ETHER] | > 50 µM | 49.5 µM
18 | COc1c2ccoc2nc2c(OC)cccc12 [GAMMA-FAGARINE] | > 50 µM | 31.3 µM
19 | Cn1c2ccccc2c(=O)c2ccoc21 [ISODICTAMNINE] | > 50 µM | > 50 µM
20 | COc1c2c(cc3ccc(=O)oc13)C=CC(C)(C)O2 [LUVANGETIN] | > 50 µM | > 50 µM
21 | O=S(=O)(F)Cc1ccccc1 [PHENYLMETHYLSULFONYLFLUORIDE] | 204 µM | –
22 | COc1c2ccoc2nc2c(O)cccc12 [ROBUSTINE] | > 50 µM | 18.2 µM
23 | COc1cc2ccc(=O)oc2cc1OC [SCOPARONE] | > 50 µM | 42.9 µM
24 | COc1cc2ccc(=O)oc2cc1O [SCOPOLETIN] | > 50 µM | > 50 µM
25 | COc1ccc2c(OC)c3ccoc3nc2c1OC [SKIMMIANINE] | 19.2 µM | 13.2 µM
